In ChEMBL document CHEMBL3421592, “Synthesis and QSAR study of novel anti-inflammatory active mesalazine-metronidazole conjugates” (Bioorg Med Chem Lett, 2015) one finds inhibition in vivo, Activity and UI data, which are given here for eleven compounds.

For data set [1], the system named is Rattus norvegicus. Nature of the data set: Antiinflammatory activity in Wistar rat assessed as inhibition of carrageenan-induced paw edema at 10 mg/kg indomethacin mol equivalent, ip administered 1 hr prior to carrageenan challenge measured at 1 hr relative to control. The class given is functional. The settings on record: route intraperitoneal.
In data set [2] the test system is Rattus norvegicus. Nature of the data set: Antiinflammatory activity in Wistar rat assessed as inhibition of carrageenan-induced paw edema at 10 mg/kg indomethacin mol equivalent, ip administered 1 hr prior to carrageenan challenge measured at 2 hrs relative to control. The class given is functional. Conditions: route intraperitoneal. (In general: In the carrageenan paw model, swelling and tenderness develop within hours.)

For data set [3], the system named is Rattus norvegicus. Nature of the data set: Antiinflammatory activity in Wistar rat assessed as inhibition of carrageenan-induced paw edema at 10 mg/kg indomethacin mol equivalent, ip administered 1 hr prior to carrageenan challenge measured at 3 hrs relative to control. Conditions: route intraperitoneal. The class given is functional.
Data set [4] has as its system Rattus norvegicus. In words: Antiinflammatory activity in Wistar rat assessed as inhibition of carrageenan-induced paw edema at 10 mg/kg indomethacin mol equivalent, ip administered 1 hr prior to carrageenan challenge measured at 4 hrs relative to control. The class given is functional. The settings on record: route intraperitoneal.
Data set [5] deals with Rattus norvegicus. In words: Antiinflammatory activity in Wistar rat assessed as inhibition of carrageenan-induced paw edema at 10 mg/kg indomethacin mol equivalent, ip administered 1 hr prior to carrageenan challenge measured at 24 hrs relative to control. The class given is functional. Conditions: route intraperitoneal.
Data set [6] deals with Mus musculus. Nature of the data set: Toxicity in albino mouse assessed as appearance of toxic symptoms at 50 to 100 mg/kg indomethacin mol equivalent, ip measured after 24 hrs. The class given is organism-based. The settings on record: in vivo. Details: dose 50-100 mg/kg, route intraperitoneal.
Data set [7] relates to Mus musculus. Nature of the data set: Toxicity in albino mouse assessed as mortality at 50 to 100 mg/kg indomethacin mol equivalent, ip measured after 24 hrs. The class given is organism-based. Also noted: dose 50-100 mg/kg, route intraperitoneal. The settings on record: in vivo.
For data set [8], the system named is Rattus norvegicus. Nature of the data set: Ulcerogenic activity in Wistar rat assessed as ulcer index at 10 mg/kg indomethacin mol equivalent, po administered 3 days relative to control. The class given is toxicity, organism-based. Also noted: dose 10 mg/kg, route oral. The settings on record: in vivo, 72 h.
Data set [9] deals with Rattus norvegicus. In words: Antiinflammatory activity in Wistar rat assessed as inhibition of carrageenan-induced paw edema at 10 mg/kg, ip administered 1 hr prior to carrageenan challenge measured at 1 hr relative to control. The class given is functional. The settings on record: route intraperitoneal.
Data set [10] deals with Rattus norvegicus. In words: Antiinflammatory activity in Wistar rat assessed as inhibition of carrageenan-induced paw edema at 10 mg/kg, ip administered 1 hr prior to carrageenan challenge measured at 2 hrs relative to control. The settings on record: route intraperitoneal. The class given is functional.
The test system of data set [11] is Rattus norvegicus. In words: Antiinflammatory activity in Wistar rat assessed as inhibition of carrageenan-induced paw edema at 10 mg/kg, ip administered 1 hr prior to carrageenan challenge measured at 3 hrs relative to control. The class given is functional. Conditions: route intraperitoneal.
Data set [12] deals with Rattus norvegicus. Nature of the data set: Ulcerogenic activity in Wistar rat assessed as ulcer index at 10 mg/kg, po administered 3 days relative to control. The class given is toxicity, organism-based. Details: dose 10 mg/kg, route oral. The settings on record: in vivo, 72 h.

Usually inhibition in vivo stands for how much of the control response was suppressed. Turning to `CC(=O)Nc1ccc(O)c(C(=O)O)c1`, the inhibition in vivo was found to be 43.3% in the data set on Rattus norvegicus [1]; 7.9% in the data set with Rattus norvegicus [2]; 1.3% with Rattus norvegicus [3]; 0% in the data set on Rattus norvegicus [4]; 0% in the data set with Rattus norvegicus [5].
Consider `Cc1ncc([N+](=O)[O-])n1CCOC(=O)c1cc(NC(=O)CNC(=O)OCc2ccccc2)ccc1O`, for which the inhibition in vivo is 56.1% with Rattus norvegicus [1]; 56.5% in the data set on Rattus norvegicus [2]; 57% in the data set on Rattus norvegicus [3]; 52.8% with Rattus norvegicus [4]; 17.1% in the data set with Rattus norvegicus [5].
The matching figures for `Cc1ncc([N+](=O)[O-])n1CCOC(=O)c1cc(NC(=O)[C@H](C)NC(=O)OCc2ccccc2)ccc1O`: 58.5%, 37.5%, 37.1%, 36.1% and 11.6%.
The like results for `Cc1ncc([N+](=O)[O-])n1CCOC(=O)c1cc(NC(=O)[C@H](Cc2ccccc2)NC(=O)OCc2ccccc2)ccc1O` were, in that order, 54.8%, 30.1%, 29%, 27.5% and 33.2%.
With `Cc1ncc([N+](=O)[O-])n1CCOC(=O)c1cc(NC(=O)[C@@H](NC(=O)OCc2ccccc2)C(C)C)ccc1O`, the inhibition in vivo with Rattus norvegicus [1] is 74.4%; in the data set on Rattus norvegicus [2] it was 64.5%; in the data set on Rattus norvegicus [3], 61.5%; in the data set with Rattus norvegicus [4], 58.2%; in the data set on Rattus norvegicus [5], 51.7%. The Activity result in the data set on Mus musculus [6] and in the data set with Mus musculus [7] was “Non-toxic” each time. Besides, in the data set with Rattus norvegicus [8], the UI stood at 0.
Turning to `Cc1ncc([N+](=O)[O-])n1CCOC(=O)c1cc(NC(=O)[C@H](CCCCN)NC(=O)OCc2ccccc2)ccc1O`, the inhibition in vivo with Rattus norvegicus [1] stood at 44.3%; in the data set with Rattus norvegicus [2], 37.8%; with Rattus norvegicus [3], 36.9%; in the data set with Rattus norvegicus [4], 33.5%; in the data set on Rattus norvegicus [5] it was 23.4%.
The like results for `CC(=O)Nc1ccc(O)c(C(=O)OCCn2c([N+](=O)[O-])cnc2C)c1` were, in that order, 63.4%, 24.5%, 16.6%, 15.5% and 0%.
Take `Cc1ncc([N+](=O)[O-])n1CCOC(=O)c1cc(NC(=O)C(C)NC(=O)OCc2ccccc2)ccc1O` (racemic): the inhibition in vivo in the data set on Rattus norvegicus [1] was 57.9%; in the data set on Rattus norvegicus [2], 47%; in the data set on Rattus norvegicus [3], 44.8%; in the data set with Rattus norvegicus [4] it was 41.1%; in the data set with Rattus norvegicus [5], 0%.
Take `COc1ccc2c(c1)c(CC(=O)O)c(C)n2C(=O)c1ccc(Cl)cc1` [INDOMETHACIN]: the inhibition in vivo at 10 mg/kg in the data set with Rattus norvegicus [9] was found to be 48.3%; in the data set on Rattus norvegicus [10], 55.3%; with Rattus norvegicus [11], 61.3%. Also, in the data set on Rattus norvegicus [12], the UI was determined as 6.
Take `Nc1ccc(O)c(C(=O)O)c1` [MESALAMINE]: the inhibition in vivo in the data set on Rattus norvegicus [1] was 63.8%; with Rattus norvegicus [2], 53.2%; with Rattus norvegicus [3], 57.5%; with Rattus norvegicus [4], 52.3%; in the data set on Rattus norvegicus [5], 38.6%.
As to `Cc1ncc([N+](=O)[O-])n1CCO` [METRONIDAZOLE], the inhibition in vivo with Rattus norvegicus [1] came to 66.3%; in the data set with Rattus norvegicus [2] it was 66.3%; with Rattus norvegicus [3], 60.8%; with Rattus norvegicus [4] it was 58.9%; in the data set on Rattus norvegicus [5], 0%. The Activity entry in the data set with Mus musculus [6] and in the data set with Mus musculus [7] was “Non-toxic” each time. For the same compound, the UI in the data set with Rattus norvegicus [8] amounted to 0.
